Assay results taken from patent publication US7232837B2, “Stereoisomers with high affinity for adrenergic receptors” (McNeil-PPC, Inc., priority 1999, dated 2007).
pIC50, pKi: −log10 of the molar value.

Experiments:
Dog = test: Dosage which raised mean arterial pressure 10%, dog; type: in vivo
Rat = test: Dosage which raised mean arterial pressure 10%, rat; type: in vivo
Sprague Dawley rats [1] = test: Nasal airway pressure in histamine-challenged rats
Sprague Dawley rats [2] = test: Nasal airway pressure in non-histamine-challenged rats; settings: for Mean Decrease in Nasal Airway Pressure: rats, i.v., ± SEM
α2 adrenergic receptors = test: Alpha-2 binding, 125iodoclonidine, canine brain (frontal cortex) membranes; set-up: species or system canine (mongrel dogs); settings: canine brain membranes; for pIC50: inhibition of specific p-iodoclonidine binding; for pKi: p-iodoclonidine
Method: BRAIN ALPHA-2 RECEPTORS: Membranes of mongrel dogs were harvested from the canine frontal cortex and prepared as described for lung except that the final membrane protein concentration was adjusted to 0.5 mg/ml.
ALPHA-2 BINDING ^125IODOCLONIDINE. […] Nonspecific binding was determined in separate incubations in the presence of 10 μM phentolamine. The final concentration of p-iodoclonidine was 44–45 pM in competition studies and between 50 pM and 10 nM in saturation experiments. Bound and free p-^125iodoclonidine were separated and the bound quantified as described above for the ICYP assays. […] BETA-2 BINDING, ^125IODOCYANOPINDOLOL (^125ICYP). […] Nonspecific binding was determined in separate incubations in the presence of 2 μM d,l-propranolol. Each experimental point was determined in triplicate. […] Incubations were terminated as described above for the α1 assays. Filters were placed into polyethylene tubes and the bound ligand was determined by gamma spectrometry (Sano et al., 1993).
All data were analyzed with the aid of microcomputer nonlinear curve fitting programs (PRISM 2.0, Graphpad Software, San Diego Calif.).
The receptors resident in each of the three membrane preparations were evaluated by standard saturation analysis following the addition of increasing concentrations of the appropriate radioligand. […] The radio ligand added for subsequent α2-displacement assays was adjusted to evaluate only the high affinity receptor. Contributions from p-iodoclonidine binding to imidazoline receptors in the α2-displacement assay were evaluated with epinephrine.
The variable, I, is the concentration of tracer added and the variable, Kd, is the equilibrium dissociation constant empirically determined for this receptor population.

Compound	Dosage of Enantiomer which raised mean arterial pressure 10%, Dog (Dog)	Dosage of Enantiomer which raised mean arterial pressure 10%, Rat (Rat)	nasal airway pressure, Post Drug (Sprague Dawley rats [1]; 100% dose i.v. after histamine challenge)	nasal airway pressure, % Change (Sprague Dawley rats [1]; 100% dose i.v. after histamine challenge, post drug vs post histamine)	nasal airway pressure, Post Histamine (Sprague Dawley rats [1]; after intranasal histamine 50 mM, before drug)	nasal airway pressure, Control (Sprague Dawley rats [1]; before histamine and drug)	Mean Decrease in Nasal Airway Pressure (Sprague Dawley rats [2]; 5% of the dose that increased mean arterial pressure 10%)	Mean Decrease in Nasal Airway Pressure (Sprague Dawley rats [2]; 10% of the dose that increased mean arterial pressure 10%)	Mean Decrease in Nasal Airway Pressure (Sprague Dawley rats [2]; 25% of the dose that increased mean arterial pressure 10%)	Mean Decrease in Nasal Airway Pressure (Sprague Dawley rats [2]; 50% of the dose that increased mean arterial pressure 10%)	nasal airway pressure, Post Drug (Sprague Dawley rats [2]; 100% dose i.v. (jugular vein), non-histamine-challenged rats)	nasal airway pressure, % Change (Sprague Dawley rats [2]; 100% dose i.v., non-histamine-challenged rats, post drug vs control)	nasal airway pressure, Control (Sprague Dawley rats [2]; before drug, non-histamine-challenged rats)	pIC50 (α2 adrenergic receptors)	pKi (α2 adrenergic receptors)
CNC[C@@H](O)c1cccc(O)c1 [(+)-Phenylephrine, (+)-phenylephrine]	80 µg/kg	24 µg	5.5 ± 0.5 mm water	−35.2 ± 2.5%	8.7 ± 1.1 mm water	6.5 ± 0.4 mm water	−4.00 ± 1.2	−2.5 ± 1.0	−4.6 ± 1.4	−10.2 ± 3.9	8 ± 0.3 mm H2O	−12.2 ± 3.1%	9 ± 0.4 mm H2O	–	–
(+)-norpseudoephedrine	–	–	–	–	–	–	–	–	–	–	–	–	–	5.30	5.40
(−)-norpseudoephedrine	–	–	–	–	–	–	–	–	–	–	–	–	–	5.00	5.10
